Measured values: patent US7994172B2, “[1H-pyrazolo[3, 4-D]pyrimidin-4-yl]-piperidine or -piperazine compounds as serine-theoronine kinase modulators (P70s6k, Atk1 and Atk2) for the treatment of immunological, inflammatory and proliferative diseases” (Exelixis, Inc., priority 2004, dated 2011)

Key:
Type in all cases: biochemical
[1] = biological target: T1, human Akt1 kinase (kinase domain residues R144-A480, activated with PDK1) (Homo sapiens, UniProt P31749); assay: Akt1 kinase assay, Luciferase-Coupled Chemiluminescent Kinase assay (LCCA); settings: 1 μM ATP, 1.3 nM Akt1; read-out: Akt-1 inhibition IC50
T1 construct: made in house
Summary of the method: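 Baculovirus-expressed PDK1-activated Akt1 kinase domain (R144-A480), 1.3 nM, with 5 μM crosstide and 1 μM ATP in Tris pH 7.5 with MgCl2/MnCl2, 3 h at ambient temperature. Remaining ATP read by luciferase-luciferin chemiluminescence; 10-point IC50 from four-parameter fit.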

[2] = biological target: T2, human p70S6 kinase (p70S6K, kinase domain residues 1-421, T412E mutation) (Homo sapiens, UniProt P23443, T412E); assay: p70S6 kinase assay, Luciferase-Coupled Chemiluminescent Kinase assay (LCCA); settings: 5 μM ATP, 12 nM p70S6K; read-out: p70S6K inhibition IC50
T2 construct: human p70S6 kinase domainresidues 1-421, containing a T412E mutation; made in house
Summary of the method: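 Baculovirus-expressed kinase domain (12 nM) reacted 2 h at ambient temperature with 5 μM ATP and 5 μM RRRLSSLRA peptide. Buffer was Tris pH 7.5 with MgCl2, MnCl2, DTT and Triton X-100. Remaining ATP was read by luciferase-luciferin chemiluminescence. IC50 came from 10-point dose-response with a four-parameter Hill fit.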

[3] = biological target: T3, human Akt2 kinase (kinase domain residues K146-R480) (Homo sapiens, UniProt P31751); assay: Akt2 kinase assay, Luciferase-Coupled Chemiluminescent Kinase assay (LCCA); settings: 2 μM ATP, 10 nM Akt2; read-out: Akt-2 inhibition IC50
T3 construct: human Akt2 kinase domain residues K146-R480; made in house
Protocol: Kinase activity and compound inhibition are investigated using one or more of the three assay formats described below. The ATP concentrations for each assay are selected to be close to the Michaelis-Menten constant (KM) for each individual kinase. Dose-response experiments are performed at 10 different inhibitor concentrations in a 384-well plate format. The data are fitted to four-parameter equation (2) below; where Y is the observed signal, X is the inhibitor concentration, Min is the background signal in the absence of enzyme (0% enzyme activity), Max is the signal in the absence of inhibitor (100% enzyme activity), IC50 is the inhibitor concentration at 50% enzyme inhibition and H represents the empirical Hill's slope to measure the cooperativity. Typically H is close to unity. Y=Min+(Max−Min)/(1+(X/IC50)^H) Equation (2) p70S6 Kinase Assay
Biochemical activity of Akt2 kinase was assessed using a Luciferase-Coupled Chemiluminescent Kinase assay (LCCA) format. Kinase activity was measured as the percent ATP remaining following the kinase reaction. Remaining ATP was detected by luciferase-luciferin-coupled chemiluminescence. Specifically, the reaction was initiated by mixing test compounds, 2 μM ATP, 5 μM crosstide peptide and 10 nM Akt2 (baculovirus expressed human Akt2 kinase domain residues K146-R480) in a 20 uL assay buffer (20 mM Tris-HCL pH 7.5, 10 mM MgCl2, 0.03% Triton X-100, 1 mM DTT, 3 mM MnCl2). The mixture is incubated at ambient temperature for 2 hours after which 20 μL luciferase-luciferin mix is added and the chemiluminescent signal read using a Wallac Victor2 reader. The luciferase-luciferin mix consists of 50 mM HEPES, pH 7.8, 8.5 μg/mL oxalic acid (pH 7.8), 5 (or 50) mM DTT, 0.4% Triton X-100, 0.25 mg/mL coenzyme A, 63 uM AMP, 28 μg/mL luciferin and 40,000 units/mL luciferase.

T2 sequence (P23443 1-421 T412E): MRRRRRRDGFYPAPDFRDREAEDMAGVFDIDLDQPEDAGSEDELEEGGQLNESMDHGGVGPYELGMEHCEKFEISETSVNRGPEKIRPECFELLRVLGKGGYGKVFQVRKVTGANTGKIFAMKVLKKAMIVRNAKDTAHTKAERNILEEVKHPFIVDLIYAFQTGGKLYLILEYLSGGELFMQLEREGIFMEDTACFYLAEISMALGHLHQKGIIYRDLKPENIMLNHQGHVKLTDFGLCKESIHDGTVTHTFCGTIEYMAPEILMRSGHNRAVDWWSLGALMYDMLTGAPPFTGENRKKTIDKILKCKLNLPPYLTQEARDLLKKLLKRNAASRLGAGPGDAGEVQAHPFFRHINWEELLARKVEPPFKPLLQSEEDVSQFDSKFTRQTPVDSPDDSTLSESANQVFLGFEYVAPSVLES
T1 sequence (P31749 144-480): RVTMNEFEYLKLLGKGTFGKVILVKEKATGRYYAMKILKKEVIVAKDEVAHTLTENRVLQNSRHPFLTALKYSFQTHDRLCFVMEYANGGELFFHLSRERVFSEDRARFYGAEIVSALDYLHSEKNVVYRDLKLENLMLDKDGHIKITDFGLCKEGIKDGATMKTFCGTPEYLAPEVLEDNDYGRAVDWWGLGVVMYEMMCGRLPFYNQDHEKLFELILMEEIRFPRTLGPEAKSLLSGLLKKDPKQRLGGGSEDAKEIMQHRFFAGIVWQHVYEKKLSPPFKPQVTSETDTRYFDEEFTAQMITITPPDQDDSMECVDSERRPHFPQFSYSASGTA
T3 sequence (P31751 146-480): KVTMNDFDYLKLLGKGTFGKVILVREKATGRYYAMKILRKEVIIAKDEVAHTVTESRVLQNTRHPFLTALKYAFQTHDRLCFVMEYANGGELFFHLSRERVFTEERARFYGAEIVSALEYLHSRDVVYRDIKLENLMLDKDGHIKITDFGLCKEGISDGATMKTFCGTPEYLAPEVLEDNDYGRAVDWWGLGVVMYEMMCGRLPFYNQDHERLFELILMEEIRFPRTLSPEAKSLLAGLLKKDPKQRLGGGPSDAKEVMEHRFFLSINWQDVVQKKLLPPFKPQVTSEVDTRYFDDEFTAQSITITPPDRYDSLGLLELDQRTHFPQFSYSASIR

Brc1n[nH]c2ncnc(N3CCN(Cc4cccc5ccccc45)CC3)c12 [Entry 63, 3-bromo-4-[4-(naphthalen-1-ylmethyl)piperazin-1-yl]-1H-pyrazolo[3,4-d]pyrimidine]
IC50 [1]: > 2000 nM
IC50 [2]: 50 to 500 nM
IC50 [3]: > 2000 nM

Clc1ccc(-c2ccc(CN3CCN(c4ncnc5[nH]nc(Br)c45)CC3)o2)cc1 [Entry 64, 3-bromo-4-(4-{[5-(4-chlorophenyl)furan-2-yl]methyl}piperazin-1-yl)-1H-pyrazolo[3,4-d]pyrimidine]
IC50 [1]: > 2000 nM
IC50 [2]: 500 to 2000 nM
IC50 [3]: > 2000 nM

O=C(c1ccco1)N1CCN(c2ncnc3[nH]nc(Br)c23)CC1 [Entry 66, 3-bromo-4-[4-(furan-2-ylcarbonyl)piperazin-1-yl]-1H-pyrazolo[3,4-d]pyrimidine]
IC50 [1]: > 2000 nM
IC50 [2]: 500 to 2000 nM
IC50 [3]: > 2000 nM

O=C(c1ccc2cc[nH]c2c1)N1CCN(c2ncnc3[nH]nc(Br)c23)CC1 [Entry 67, 3-bromo-4-[4-(1H-indol-6-ylcarbonyl)piperazin-1-yl]-1H-pyrazolo[3,4-d]pyrimidine]
IC50 [1]: > 2000 nM
IC50 [2]: 500 to 2000 nM
IC50 [3]: > 2000 nM

Brc1n[nH]c2ncnc(N3CCN(CCc4cccs4)CC3)c12 [Entry 68, 3-bromo-4-{4-[2-(2-thienyl)ethyl]piperazin-1-yl}-1H-pyrazolo[3,4-d]pyrimidine]
IC50 [1]: > 2000 nM
IC50 [2]: 500 to 2000 nM
IC50 [3]: > 2000 nM

Brc1n[nH]c2ncnc(N3CCN(CCCN4CCCC4)CC3)c12 [Entry 69, 3-bromo-4-[4-(3-pyrrolidin-1-ylpropyl)piperazin-1-yl]-1H-pyrazolo[3,4-d]pyrimidine]
IC50 [1]: > 2000 nM
IC50 [2]: 500 to 2000 nM
IC50 [3]: > 2000 nM

Brc1n[nH]c2ncnc(N3CCN(CC4CCCCC4)CC3)c12 [Entry 70, 3-bromo-4-[4-(cyclohexylmethyl)piperazin-1-yl]-1H-pyrazolo[3,4-d]pyrimidine]
IC50 [1]: > 2000 nM
IC50 [2]: 500 to 2000 nM
IC50 [3]: > 2000 nM

Clc1c2ccccc2c(CN2CCN(c3ncnc4[nH]nc(Br)c34)CC2)c2ccccc12 [Entry 71, 3-bromo-4-{4-[(10-chloroanthracen-9-yl)methyl]piperazin-1-yl}-1H-pyrazolo[3,4-d]pyrimidine]
IC50 [1]: > 2000 nM
IC50 [2]: 500 to 2000 nM
IC50 [3]: > 2000 nM

CCC(C)N1CCN(c2ncnc3[nH]nc(Br)c23)CC1 (stereo not drawn) [Entry 72, 3-bromo-4-[4-(1-methylpropyl)piperazin-1-yl]-1H-pyrazolo[3,4-d]pyrimidine]
IC50 [1]: > 2000 nM
IC50 [2]: 500 to 2000 nM
IC50 [3]: > 2000 nM

COc1cc(OC)nc(CN2CCN(c3ncnc4[nH]nc(Br)c34)CC2)n1 [Entry 73, 4-(4-{[4,6-bis(methyloxy)pyrimidin-2-yl]methyl}piperazin-1-yl)-3-bromo-1H-pyrazolo[3,4-d]pyrimidine]
IC50 [1]: > 2000 nM
IC50 [2]: 500 to 2000 nM
IC50 [3]: > 2000 nM

COCCN1CCN(c2ncnc3[nH]nc(Br)c23)CC1 [Entry 74, 3-bromo-4-{4-[2-(methyloxy)ethyl]piperazin-1-yl}-1H-pyrazolo[3,4-d]pyrimidine]
IC50 [1]: > 2000 nM
IC50 [2]: 500 to 2000 nM
IC50 [3]: > 2000 nM

O=C(CN1CCN(c2ncnc3[nH]nc(Br)c23)CC1)N1CCOCC1 [Entry 75, 3-bromo-4-[4-(2-morpholin-4-yl-2-oxoethyl)piperazin-1-yl]-1H-pyrazolo[3,4-d]pyrimidine]
IC50 [1]: > 2000 nM
IC50 [2]: > 2000 nM
IC50 [3]: > 2000 nM

COCCCN1CCN(c2ncnc3[nH]nc(Br)c23)CC1 [Entry 76, 3-bromo-4-{4-[3-(methyloxy)propyl]piperazin-1-yl}-1H-pyrazolo[3,4-d]pyrimidine]
IC50 [1]: > 2000 nM
IC50 [2]: > 2000 nM
IC50 [3]: > 2000 nM

COc1cc(OC)nc(C(c2ccccc2)N2CCN(c3ncnc4[nH]nc(Br)c34)CC2)n1 (stereo not drawn) [Entry 77, 4-{4-[[4,6-bis(methyloxy)pyrimidin-2-yl](phenyl)methyl]piperazin-1-yl}-3-bromo-1H-pyrazolo[3,4-d]pyrimidine]
IC50 [1]: > 2000 nM
IC50 [2]: > 2000 nM
IC50 [3]: > 2000 nM

Brc1n[nH]c2ncnc(N3CCN(C4CCCCc5ccccc54)CC3)c12 (stereo not drawn) [Entry 78, 3-bromo-4-[4-(6,7,8,9-tetrahydro-5H-benzocyclohepten-5-yl)piperazin-1-yl]-1H-pyrazolo[3,4-d]pyrimidine]
IC50 [1]: > 2000 nM
IC50 [2]: > 2000 nM
IC50 [3]: > 2000 nM

Brc1n[nH]c2ncnc(N3CCN(Cc4ccc(OCc5ccccc5)cc4)CC3)c12 [Entry 79, 3-bromo-4-[4-({4-[(phenylmethyl)oxy]phenyl}methyl)piperazin-1-yl]-1H-pyrazolo[3,4-d]pyrimidine]
IC50 [1]: > 2000 nM
IC50 [2]: > 2000 nM
IC50 [3]: > 2000 nM

CN(C)C(=O)CN1CCN(c2ncnc3[nH]nc(Br)c23)CC1 [Entry 85, 2-[4-(3-bromo-1H-pyrazolo[3,4-d]pyrimidin-4-yl)piperazin-1-yl]-N,N-dimethylacetamide]
IC50 [1]: > 2000 nM
IC50 [2]: > 2000 nM
IC50 [3]: > 2000 nM
